Reference: US20200157145A1, “NEUTRAL-CATIONIC PEPTOIDS AND USES THEREOF” (Stealth BioTherapeutics Corp, priority 2018, published 2020)

Test system: isolated guinea pig heart exposed to global ischemia
Test: Cardiac ischemia-reperfusion injury in isolated perfused guinea pig heart (global no-flow ischemia 20 min, reperfusion 120 min)
Protocol: Procedures for the use of guinea pigs are in accordance with the guidelines established by the American Physiological Society. Adult male guinea pigs (200-300 g) will be anesthetized with a ketamine/xylazine cocktail (85/15 mg mL, respectively; ip delivery). Upon the absence of reflexes to ensure a deep plane of anesthesia, hearts will be excised via midline thoracotomy and immersed in ice-cold saline. Hearts will be cannulated by the aorta and perfused with a modified Krebs-Henseleit buffer containing (in mM): 118 NaCl, 24 NaHCO3, 4.75 KCl, 1.2 KH2PO4, 1.2 MgSO4, 2.0 CaCl2, and 10 glucose (gassed with 95/5% O2/CO2). Hearts will be placed in a buffer-filled perfusion chamber and maintained at 37° C. for the duration of the experiments.
Following the initiation of perfusion, hearts will be instrumented for the simultaneous observation of mechanical and electrical function. A buffer-filled latex balloon will be inserted into the left ventricle (via the mitral valve) for the measurement of left ventricular developed pressure, with balloon volume adjusted to establish an end-diastolic pressure of 5-8 mmHg. Three electrodes will be placed into the buffer-filled perfusion chamber for the measurement of volume-conducted ECG. A pre-established protocol of electrode placement will be utilized to obtain a signal analogous to Lead II of a typical 12-lead ECG. All physiological parameters will be continuously monitored and stored on a personal computer using commercially available software (Chart, AD Instruments).
After a 10-minute equilibration period, hearts will be divided into the following different treatment groups: 1. Control followed by I/R; 2. Administration of 1 nM ηArg-η2′6′-Dmt-ηLys-ηPhe-NH2 in the perfusate both before and after index ischemia; 3. Post-ischemic administration of 1 nM ηArg-η2′6′-Dmt-ηLys-ηPhe-NH2 using both a bolus dose (also 1 nM, administered immediately prior to reperfusion) and ηArg-η2′6′-Dmt-ηLys-ηPhe-NH2 in the reperfusion solution; 4. Positive control using ischemic preconditioning; 3 cycles of 5 min I/R before index ischemia).
Hearts will be exposed to global no-flow ischemia by stopping perfusion for 20 minutes. At the end of the index ischemia, static buffer from the perfusion lines will be washed out (via an accessory port proximal to the aortic cannula) and reperfusion ensued for 120 minutes. Administration of all compounds in the perfusate will be accomplished via dissolving the compound(s) in solution prior to administration. The reperfusion bolus dose will be delivered to the heart via syringe through a drug-delivery port just above the aortic cannula. At the end of the 2 h reperfusion protocol, the LV will be dissected, sliced into 5 mm-thick slices, incubated in triphenyltetrazolium chloride (TTC) for 10 minutes (37° C.), and digitally photographed for subsequent infarct size analysis. Infarct sizes are expressed as the infarcted area as a percentage of the LV (in the global ischemia model, the entire LV constitutes the zone-at-risk).

[1] = peptoid 0.01 nM, 0.1 nM, cyclosporin-A 0.2 μM

ηArg-η2′6′-Dmt-ηLys-ηPhe-NH2 was tested, and the “Incidence of VT/VF (ventricular tachycardia and/or fibrillation)” value (0.01 nM/0.1 nM(30 min R)) was “protection against the incidence of VT/VF”, the “Infarct size (infarcted area as a percentage of the LV)” value (1 nM or 0.1 nM or 0.001 nM or 0.01 nM/0.1 nM(30 min R), 20 min global ischemia, compared to control group) was “lower incidence of infarction (infarction size)” and the “Baseline coronary flow rates” value (groups receiving 0.01 nM) was “slightly lower than other groups”. The Baseline heart rate [1] was “no discernable effects”, the “Baseline left ventricular developed pressure” value [1] was “no discernable effects” and the “Baseline rates of contraction/relaxation” value [1] was “no discernable effects”. The Coronary flow rates (peptoid 1 nM, 0.1 nM, 0.01 nM to 0.1 nM, cyclosporin-A 0.2 uM, whole time or at reperfusion, vs control) was “no differences in coronary flow rates”.
